Several values for one entry are separate records, joined by “and”; a condition that tells them apart may be missing. Equal entries are not always repeated.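 Interpolation was linear, between the two tested concentrations surrounding the appropriate level; five concentrations were tested over 48 hours in 96-well plates. At the GI50, growth is halved. TGI is the concentration that stops growth completely.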
Legend:
Assay in all cases: NCI-60 cell line screen, 48 h
HOP-92 NSCLC = system: HOP-92 NSCLC
COLO 205 colon = system: COLO 205 colon
DU-145 prostate = system: DU-145 prostate
BT-549 breast = system: BT-549 breast
LOX IMVI melanoma = system: LOX IMVI melanoma
UACC-62 melanoma = system: UACC-62 melanoma
T-47D breast = system: T-47D breast
NCI-H522 lung = system: NCI-H522 lung
SK-OV-3 ovarian = system: SK-OV-3 ovarian
U251 CNS = system: U251 CNS

Row | Structure (SMILES) | GI50 (HOP-92 NSCLC) [µM] | TGI (HOP-92 NSCLC) | GI50 (COLO 205 colon) [µM] | TGI (COLO 205 colon) [µM] | TGI (DU-145 prostate) [µM] | GI50 (BT-549 breast) | TGI (BT-549 breast) | GI50 (LOX IMVI melanoma) [µM] | TGI (LOX IMVI melanoma) | GI50 (UACC-62 melanoma) [µM] | TGI (UACC-62 melanoma) | GI50 (T-47D breast) [µM] | GI50 (DU-145 prostate) [µM] | GI50 (NCI-H522 lung) [µM] | TGI (NCI-H522 lung) | GI50 (SK-OV-3 ovarian) [µM] | TGI (SK-OV-3 ovarian) | GI50 (U251 CNS) [µM] | TGI (U251 CNS) | TGI (T-47D breast) [µM]
1 | CCc1c2c(nc3cc4c(cc13)OCO4)-c1cc3c(c(=O)n1C2)COC(=O)[C@]3(O)CC | 0.019 | > 100 µM | 1.17 | > 100 | > 100 | 0.0654 µM and 0.0367 µM | 5.29 µM and 0.782 µM | 0.00197 | 0.122 µM and 0.52 µM | < 0.001 | 0.195 µM and 0.409 µM | < 0.001 | – | – | – | – | – | – | – | –
2 | NC(N)=N/N=C(/c1ccccc1)c1ccc(F)cc1 | 0.984 | 31.4 µM | 0.267 | 0.841 | 4.15 | 0.551 µM | 2.85 µM | 0.513 | 10.7 µM | 0.421 | 15.5 µM | – | 0.33 | 0.267 | 1.45 µM | 0.371 | 12.8 µM | 0.337 | 5.21 µM | –
3 | C=CCSC[C@H](NC(=O)COc1ccccc1)C(=O)NC(C(=O)OCc1ccc([N+](=O)[O-])cc1)=C(C)C | – | – | – | 39 | – | – | – | – | > 100 µM | – | > 100 µM | – | – | – | > 100 µM | – | > 100 µM | – | > 100 µM | –
4 | CC(=O)[CH-]C(=O)c1ccccc1.CC(=O)[CH-]C(=O)c1ccccc1.CCCCCCCCCCCCCCCCCC(=O)[O-].CCCCCCCCCCCCCCCCCC(=O)[O-].[Ti+4] | 17 | 33.9 µM | 87.4 | > 100 | – | – | – | 18 | 35.9 µM | 18.7 | 41.5 µM | – | – | 23.1 | 62.4 µM | 21.9 | 37.9 µM | 20.3 | 41.4 µM | –
5 | CSC1=NC=CCN1C | – | – | – | > 100 | – | – | – | – | > 100 µM | – | > 100 µM | – | – | – | > 100 µM | – | > 100 µM | – | > 100 µM | –
6 | COc1cc2c(c3c1C=CCO3)C(=O)c1ccccc1C2=O | – | > 100 µM | – | 39.8 | – | – | – | – | 78.6 µM | – | > 100 µM | – | – | – | > 100 µM | – | > 100 µM | – | > 100 µM | –
7 | COc1ccc(C(=O)Nc2ncc(Cc3ccc(Cl)cc3)s2)cc1 | 3.71 | > 100 µM | 0.0533 | 2.29 | > 100 | 1 µM | > 100 µM | 0.0628 | > 100 µM | 0.0475 | > 100 µM | – | 0.104 | 0.0573 | > 37.8 µM | 0.15 | > 100 µM | 0.0691 | > 100 µM | –
8 | COc1ccc2cc1Oc1ccc(cc1)C[C@H]1c3cc(c(OC)cc3CCN1C)Oc1c(OC)c(OC)cc3c1[C@H](C2)N(C)CC3 | – | 11 µM and 26 µM and > 100 µM | – | – | – | – | – | – | – | – | – | – | – | 3.27 | 14.9 µM and 12.2 µM and > 100 µM | 17.6 | 15.3 µM and 34 µM and > 100 µM | 3.92 | 15.1 µM and 13.5 µM and > 100 µM | –
9 | FC(F)(F)c1nc(-c2ccccc2Cl)[nH]c1C(F)(F)F | – | 1.22 µM | – | 0.971 | – | – | – | – | 1.23 µM | – | 3.8 µM | – | – | – | – | – | 2.45 µM | – | 3.08 µM | –
10 | O=[N+]([O-])[C@@H]1C2C=CC(C2)[C@H]1Cl (some centres not stated) | – | > 100 µM | – | > 100 | – | – | – | – | > 100 µM | – | > 100 µM | – | – | – | > 100 µM | – | > 100 µM | – | > 100 µM | –
11 | O=C(c1ccc2ccccc2c1)c1c(C(F)(F)F)n([O-])c2cc(Cl)c(Cl)cc2[n+]1=O | 1.55 | 3.18 µM | – | – | 2.9 | 1.48 µM | 2.8 µM | 1.17 | 2.4 µM | 1.61 | 2.96 µM | 1.24 | 1.57 | 1.49 | 2.81 µM | 1.58 | 3.15 µM | 1.61 | 2.96 µM | 3.01
12 | Oc1ccccc1/C=N/Nc1ccc2ccccc2n1 | 4.47 | 42.5 µM | 3.66 | > 100 | > 100 | 8.08 µM | > 100 µM | – | – | 3.17 | > 100 µM | 3.83 | 6.53 | 2.36 | 9.41 µM | 9.69 | > 100 µM | 4.23 | 31.5 µM | > 100
13 | Nc1n[nH]c2ccc([C@@H]3Nc4ccc5[nH]ncc5c4[C@H]4[C@H]5CCC(C5)[C@H]43)cc12 | 1.45 | 14.9 µM | 0.375 | 5.68 | > 28.3 | 0.489 µM | 9.29 µM | 0.7 | 14.5 µM | 0.389 | > 61.1 µM | – | 0.445 | 0.31 | 3.57 µM | 0.823 | > 80.1 µM | 0.435 | > 100 µM | –
14 | C[C@@H]1CC[C@H]2C(COCC3=C(C(F)(F)F)O[C@@H]4O[C@@]5(C)CC[C@H]6[C@H](C)CC[C@@H]3[C@@]46OO5)=C(C(F)(F)F)O[C@@H]3O[C@@]4(C)CC[C@@H]1[C@]32OO4 | – | – | < 0.01 | 0.0835 | – | – | – | – | – | 0.0609 | > 100 µM | < 0.01 | – | < 0.01 | 0.073 µM | > 100 | > 100 µM | < 0.01 | > 100 µM | > 100
15 | COC(=O)C1OC(O[C@H]2CCC3(C)C(CCC4(C)C3CC=C3C5CC(C)(C)CCC5(C(=O)O)CC[C@]34C)C2(C)C)C(O)C(OC2OC(CO)C(O)C(O)C2O)C1O (some centres not stated) | 7.12 | 14.5 µM | 8.64 | 25.3 | – | 6.93 µM | 15 µM | 6.27 | 11.7 µM | 6.23 | 11.7 µM | 8.16 | – | 10.5 | 29 µM | – | – | 6.08 | 10.9 µM | 17.2
16 | O=C1/C(=C/c2ccc(F)cc2)CCOc2ccc([N+](=O)[O-])cc21 | 4.45 | 40.2 µM | 18.8 | 35 | 18.1 | 3 µM | 7.82 µM | 35.9 | > 100 µM | 2.19 | 4.01 µM | – | 5.68 | 1.91 | 4.14 µM | 17 | 32.6 µM | 40.1 | > 100 µM | –
17 | O=C(C#Cc1c[nH]c(=O)[nH]c1=O)c1ccccc1Cl | – | 35.4 µM | – | 29.8 | – | – | – | – | 26.7 µM | – | 38.6 µM | – | – | – | – | – | > 100 µM | – | 35.1 µM | –
18 | CCOC(=O)C1(CC)CCCCC(=O)N1 (configuration not stated) | – | > 100 µM | – | > 100 | – | – | – | – | > 100 µM | – | > 100 µM | – | – | – | – | – | > 100 µM | – | > 100 µM | –
19 | COC(=O)C(c1[nH]nc2ccccc12)C(C(=O)OC)c1[nH]nc2ccccc12 (configuration not stated) | – | – | – | – | – | – | – | – | > 100 µM | – | > 100 µM | – | – | – | – | – | > 100 µM | – | > 100 µM | –
